In patent US20070196811A1, “Use Of Flavanol Derivatives For The Cryopreservation Of Living Cells” (priority 2004, published 2007):

Tested on: spermatozoa
Assay: Post-thaw sperm motility after freezing in supplemented CryoProtec medium, analyzed by CASA
Format: cell-based
Conditions: for Percentage of motile spermatozoa: thawed after 24 h in liquid nitrogen, mean±SD, 5 experiments; for velocity parameters, including linear velocity (VSL) and lateral head displacement (AHL): post-thaw, Cryoprotec medium supplemented with compound
Procedure: Aliquots of 50 μL of solutions of different 4-thioderivatives of flavan-3-ol of formula (I) hereof dissolved in PureSperm Wash medium (Nidacon International, Sweden), were added to 0.95 mL of the spermatozoa suspension (50 millions/mL) in CryoProtec freezing medium (Nidacon International, Sweden) in 1.8 mL Nunc vials in order to obtain final concentrations of 1, 10, 25, 50 and 100 μg/mL. Aliquots of 50 μL of solutions of (−)-epicatechin, a natural flavan-3-ol, were treated in the same way. As a control, 50 μL of PureSperm Wash medium (Nidacon International) were added instead of the solutions of the compounds of the invention (0 μg/mL). The percentage of motile cells in the different cellular suspensions was analyzed by CASA (Computer-Assisted Sperm Analysis) using an IVOS-IDENT (Hamilton-Thorn, Beverly, Mass.).
The cellular suspensions were processed for freezing using a standard freezing gradient as follows: cooling from room temperature to 4° C. in 30 min, from 4° C. to 0° C. in 3 min and immediately transferred to liquid nitrogen tanks. After 24 h in liquid nitrogen, the samples were thawed in a water bath at 37° C.
The percentage of motile spermatozoa in the different samples obtained above was analyzed by CASA. Since vials corresponding to the different compounds were in different boxes inside the nitrogen tanks, a control was used for each group of compounds.
Values are the mean±SD from a total of 5 experiments per concentration.

[1] = 1 μg/mL (approximate) compound in freezing medium
[2] = 10 μg/mL (approximate) compound in freezing medium
[3] = 25 μg/mL (approximate) compound in freezing medium
[4] = 50 μg/mL (approximate) compound in freezing medium
[5] = 100 μg/mL (approximate) compound in freezing medium

SMILES: N[C@@H](CS[C@H]1c2c(O)cc(O)cc2O[C@H](c2ccc(O)c(O)c2)[C@@H]1O)C(=O)O [4β-(S-cysteinyl)epicatechin]
- Percentage of motile spermatozoa [1]: 47.6 ± 3.0%
- Percentage of motile spermatozoa [2]: 52.0 ± 2.3%
- Percentage of motile spermatozoa [3]: 61.8 ± 2.6 %
- Percentage of motile spermatozoa [4]: 69.8 ± 3.2 %
- Percentage of motile spermatozoa [5]: 70.2 ± 2.8 %
- velocity parameters, including linear velocity (VSL) and lateral head displacement (AHL): significantly higher

SMILES: Oc1cc(O)c2c(c1)O[C@H](c1ccc(O)c(O)c1)[C@H](O)C2 [(−)-epicatechin, reference compound]
- Percentage of motile spermatozoa [1]: 46.8 ± 1.9%
- Percentage of motile spermatozoa [2]: 47.0 ± 2.2%
- Percentage of motile spermatozoa [3]: 47.6 ± 3.2%
- Percentage of motile spermatozoa [4]: 47.4 ± 2.6%
- Percentage of motile spermatozoa [5]: 46.8 ± 1.3%
- post-thaw motility recovery versus control ((−)-epicatechin versus control, all concentrations): No significant differences
- protection, evaluated in terms of sperm motility (concentrations ranging from 1 to 100 μg/mL): no significant protection
- storage stabilizing cryoprotective effect (summary statement): no significant storage stabilizing cryoprotective effect

SMILES: COC(=O)[C@H](CS[C@H]1c2c(O)cc(O)cc2O[C@H](c2ccc(O)c(O)c2)[C@@H]1O)NC(C)=O [Example 4, 4β-[S—(N-acetyl-O-methyl-cysteinyl)]epicatechin]
- Percentage of motile spermatozoa [1]: 47.6 ± 3.7%
- Percentage of motile spermatozoa [2]: 49.8 ± 3.0%
- Percentage of motile spermatozoa [3]: 54.8 ± 5.2 %
- Percentage of motile spermatozoa [4]: 59.4 ± 3.3 %
- Percentage of motile spermatozoa [5]: 59.2 ± 2.8 %
- velocity parameters, including linear velocity (VSL) and lateral head displacement (AHL): significantly higher
